From publication PMC11873239, “A covalent chemical probe for Chikungunya nsP2 cysteine protease with antialphaviral activity and proteome-wide selectivity” (Scientific Reports, 2025)

Key:
Type in all cases: binding
[1] = target: HEK293 cell lysate proteins and CHIKV nsP2 (Homo sapiens, UniProt O15042)
[2] = target: HEK293 cell lysate proteins and CHIKV nsP2 (Homo sapiens, UniProt Q9NYF8)
[3] = target: HEK293 cell lysate proteins and CHIKV nsP2 (Homo sapiens, UniProt P14923)
[4] = target: HEK293 cell lysate proteins and CHIKV nsP2 (Homo sapiens, UniProt P27708)
[5] = target: HEK293 cell lysate proteins and CHIKV nsP2 (Homo sapiens, UniProt P68104)
[6] = target: HEK293 cell lysate proteins and CHIKV nsP2 (Homo sapiens, UniProt P06733)
[7] = target: HEK293 cell lysate proteins and CHIKV nsP2 (Homo sapiens, UniProt Q8NE71)
[8] = target: HEK293 cell lysate proteins and CHIKV nsP2 (Homo sapiens, UniProt Q00610)
HEK293 cell lysate proteins and CHIKV nsP2 (Homo sapiens, UniProt Q00610), sequence (Q00610 whole entry): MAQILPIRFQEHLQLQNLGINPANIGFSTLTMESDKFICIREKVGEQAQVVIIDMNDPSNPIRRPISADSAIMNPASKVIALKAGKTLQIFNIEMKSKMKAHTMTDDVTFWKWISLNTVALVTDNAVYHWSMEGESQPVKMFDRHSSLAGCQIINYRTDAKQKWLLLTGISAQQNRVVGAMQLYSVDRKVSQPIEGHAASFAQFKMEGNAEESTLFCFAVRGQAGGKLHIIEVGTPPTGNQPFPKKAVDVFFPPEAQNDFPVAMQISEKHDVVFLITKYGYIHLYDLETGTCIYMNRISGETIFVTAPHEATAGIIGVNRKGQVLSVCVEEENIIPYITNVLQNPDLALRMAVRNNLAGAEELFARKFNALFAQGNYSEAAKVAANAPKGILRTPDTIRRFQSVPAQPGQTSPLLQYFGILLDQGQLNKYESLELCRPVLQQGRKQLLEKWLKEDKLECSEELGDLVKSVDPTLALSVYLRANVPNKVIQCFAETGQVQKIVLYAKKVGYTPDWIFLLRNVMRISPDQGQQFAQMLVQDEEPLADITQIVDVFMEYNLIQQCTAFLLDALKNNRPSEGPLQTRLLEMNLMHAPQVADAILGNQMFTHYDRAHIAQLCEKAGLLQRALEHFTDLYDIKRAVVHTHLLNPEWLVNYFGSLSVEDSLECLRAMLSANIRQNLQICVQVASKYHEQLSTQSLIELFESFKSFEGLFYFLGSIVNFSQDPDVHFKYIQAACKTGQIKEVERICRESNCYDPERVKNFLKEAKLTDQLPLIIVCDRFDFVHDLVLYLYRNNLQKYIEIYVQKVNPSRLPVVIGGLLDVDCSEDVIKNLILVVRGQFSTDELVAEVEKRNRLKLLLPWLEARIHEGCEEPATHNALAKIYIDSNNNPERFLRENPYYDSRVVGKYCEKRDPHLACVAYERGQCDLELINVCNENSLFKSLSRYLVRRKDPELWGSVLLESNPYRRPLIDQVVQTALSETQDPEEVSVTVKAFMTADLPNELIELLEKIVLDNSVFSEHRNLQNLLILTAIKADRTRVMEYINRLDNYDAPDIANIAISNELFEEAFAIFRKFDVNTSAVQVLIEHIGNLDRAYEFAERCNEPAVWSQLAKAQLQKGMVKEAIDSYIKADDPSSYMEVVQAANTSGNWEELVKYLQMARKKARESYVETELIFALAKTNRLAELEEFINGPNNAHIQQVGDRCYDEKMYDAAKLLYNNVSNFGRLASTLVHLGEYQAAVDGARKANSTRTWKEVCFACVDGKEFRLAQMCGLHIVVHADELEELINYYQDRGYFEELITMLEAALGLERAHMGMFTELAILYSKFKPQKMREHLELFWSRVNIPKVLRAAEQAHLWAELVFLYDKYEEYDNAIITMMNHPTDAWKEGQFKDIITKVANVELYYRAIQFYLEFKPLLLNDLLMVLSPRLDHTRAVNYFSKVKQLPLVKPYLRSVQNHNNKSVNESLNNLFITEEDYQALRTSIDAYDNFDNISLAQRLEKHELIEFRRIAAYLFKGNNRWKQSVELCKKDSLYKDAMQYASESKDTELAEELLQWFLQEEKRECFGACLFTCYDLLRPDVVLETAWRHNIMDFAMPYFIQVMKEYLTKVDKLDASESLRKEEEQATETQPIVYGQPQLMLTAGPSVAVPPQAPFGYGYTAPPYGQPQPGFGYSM

[9] = target: HEK293 cell lysate proteins and CHIKV nsP2 (Homo sapiens, UniProt O60231)
[10] = target: HEK293 cell lysate proteins and CHIKV nsP2 (Homo sapiens, UniProt Q8TEQ6)
[11] = target: HEK293 cell lysate proteins and CHIKV nsP2 (Homo sapiens, UniProt P05090)
[12] = target: HEK293 cell lysate proteins and CHIKV nsP2 (Homo sapiens, UniProt P46013)
[13] = target: HEK293 cell lysate proteins and CHIKV nsP2 (Homo sapiens, UniProt Q9Y5B9)
[14] = target: HEK293 cell lysate proteins and CHIKV nsP2 (Homo sapiens, UniProt P21127)
[15] = target: HEK293 cell lysate proteins and CHIKV nsP2 (Homo sapiens, UniProt P06702)
HEK293 cell lysate proteins and CHIKV nsP2 (Homo sapiens, UniProt P06702), sequence (P06702 whole entry): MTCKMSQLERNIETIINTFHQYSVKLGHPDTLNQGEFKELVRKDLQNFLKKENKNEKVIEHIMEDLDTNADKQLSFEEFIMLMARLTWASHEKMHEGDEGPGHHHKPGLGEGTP

[16] = target: HEK293 cell lysate proteins and CHIKV nsP2 (Homo sapiens, UniProt A8K2U0)
[17] = target: HEK293 cell lysate proteins and CHIKV nsP2 (Homo sapiens, UniProt P81605)
HEK293 cell lysate proteins and CHIKV nsP2 (Homo sapiens, UniProt P81605), sequence (P81605 20-110): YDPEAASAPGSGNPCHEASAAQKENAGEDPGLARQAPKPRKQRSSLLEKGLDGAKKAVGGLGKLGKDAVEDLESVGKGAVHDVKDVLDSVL

[18] = target: HEK293 cell lysate proteins and CHIKV nsP2 (Homo sapiens, UniProt Q9UKV3)
[19] = target: HEK293 cell lysate proteins and CHIKV nsP2 (Homo sapiens, UniProt Q5JTH9)
[20] = target: HEK293 cell lysate proteins and CHIKV nsP2 (Homo sapiens, UniProt Q5T749)
[21] = target: HEK293 cell lysate proteins and CHIKV nsP2 (Homo sapiens, UniProt O60814)
[22] = target: HEK293 cell lysate proteins and CHIKV nsP2 (Homo sapiens, UniProt P62979)
[23] = target: HEK293 cell lysate proteins and CHIKV nsP2 (Homo sapiens, UniProt P31151)
[24] = target: HEK293 cell lysate proteins and CHIKV nsP2 (Homo sapiens, UniProt O75223)
HEK293 cell lysate proteins and CHIKV nsP2 (Homo sapiens, UniProt O75223), sequence (O75223 whole entry): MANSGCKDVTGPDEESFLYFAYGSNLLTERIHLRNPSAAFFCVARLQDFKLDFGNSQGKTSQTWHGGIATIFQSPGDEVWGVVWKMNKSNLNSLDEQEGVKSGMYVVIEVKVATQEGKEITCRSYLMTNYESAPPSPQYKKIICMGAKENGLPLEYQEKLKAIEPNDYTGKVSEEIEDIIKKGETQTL

[25] = target: HEK293 cell lysate proteins and CHIKV nsP2 (Homo sapiens, UniProt Q14562)
[26] = target: HEK293 cell lysate proteins and CHIKV nsP2 (Homo sapiens, UniProt Q15517)
HEK293 cell lysate proteins and CHIKV nsP2 (Homo sapiens, UniProt Q15517), sequence (Q15517 33-529): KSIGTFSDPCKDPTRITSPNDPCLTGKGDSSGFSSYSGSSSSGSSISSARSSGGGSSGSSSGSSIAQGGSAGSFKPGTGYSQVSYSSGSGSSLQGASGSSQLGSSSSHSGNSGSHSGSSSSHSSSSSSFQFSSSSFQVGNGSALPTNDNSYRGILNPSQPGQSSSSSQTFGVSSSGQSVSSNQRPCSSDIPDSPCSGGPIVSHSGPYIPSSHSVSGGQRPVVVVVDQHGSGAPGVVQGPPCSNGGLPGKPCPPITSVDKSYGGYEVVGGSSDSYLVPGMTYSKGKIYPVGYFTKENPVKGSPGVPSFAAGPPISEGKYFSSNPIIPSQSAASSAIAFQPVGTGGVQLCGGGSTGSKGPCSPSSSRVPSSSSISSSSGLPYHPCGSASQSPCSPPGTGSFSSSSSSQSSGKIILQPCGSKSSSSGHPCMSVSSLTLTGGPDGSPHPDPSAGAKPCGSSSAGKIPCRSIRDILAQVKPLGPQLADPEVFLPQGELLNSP

[27] = target: HEK293 cell lysate proteins and CHIKV nsP2 (Homo sapiens, UniProt P04406)
[28] = target: HEK293 cell lysate proteins and CHIKV nsP2 (Homo sapiens, UniProt Q9HCY8)
[29] = target: HEK293 cell lysate proteins and CHIKV nsP2 (Homo sapiens, UniProt Q9Y520)
[30] = target: HEK293 cell lysate proteins and CHIKV nsP2 (Homo sapiens, UniProt P42357)
[31] = target: HEK293 cell lysate proteins and CHIKV nsP2 (Homo sapiens, UniProt Q8NI27)
HEK293 cell lysate proteins and CHIKV nsP2 (Homo sapiens, UniProt Q8NI27), sequence (Q8NI27 whole entry): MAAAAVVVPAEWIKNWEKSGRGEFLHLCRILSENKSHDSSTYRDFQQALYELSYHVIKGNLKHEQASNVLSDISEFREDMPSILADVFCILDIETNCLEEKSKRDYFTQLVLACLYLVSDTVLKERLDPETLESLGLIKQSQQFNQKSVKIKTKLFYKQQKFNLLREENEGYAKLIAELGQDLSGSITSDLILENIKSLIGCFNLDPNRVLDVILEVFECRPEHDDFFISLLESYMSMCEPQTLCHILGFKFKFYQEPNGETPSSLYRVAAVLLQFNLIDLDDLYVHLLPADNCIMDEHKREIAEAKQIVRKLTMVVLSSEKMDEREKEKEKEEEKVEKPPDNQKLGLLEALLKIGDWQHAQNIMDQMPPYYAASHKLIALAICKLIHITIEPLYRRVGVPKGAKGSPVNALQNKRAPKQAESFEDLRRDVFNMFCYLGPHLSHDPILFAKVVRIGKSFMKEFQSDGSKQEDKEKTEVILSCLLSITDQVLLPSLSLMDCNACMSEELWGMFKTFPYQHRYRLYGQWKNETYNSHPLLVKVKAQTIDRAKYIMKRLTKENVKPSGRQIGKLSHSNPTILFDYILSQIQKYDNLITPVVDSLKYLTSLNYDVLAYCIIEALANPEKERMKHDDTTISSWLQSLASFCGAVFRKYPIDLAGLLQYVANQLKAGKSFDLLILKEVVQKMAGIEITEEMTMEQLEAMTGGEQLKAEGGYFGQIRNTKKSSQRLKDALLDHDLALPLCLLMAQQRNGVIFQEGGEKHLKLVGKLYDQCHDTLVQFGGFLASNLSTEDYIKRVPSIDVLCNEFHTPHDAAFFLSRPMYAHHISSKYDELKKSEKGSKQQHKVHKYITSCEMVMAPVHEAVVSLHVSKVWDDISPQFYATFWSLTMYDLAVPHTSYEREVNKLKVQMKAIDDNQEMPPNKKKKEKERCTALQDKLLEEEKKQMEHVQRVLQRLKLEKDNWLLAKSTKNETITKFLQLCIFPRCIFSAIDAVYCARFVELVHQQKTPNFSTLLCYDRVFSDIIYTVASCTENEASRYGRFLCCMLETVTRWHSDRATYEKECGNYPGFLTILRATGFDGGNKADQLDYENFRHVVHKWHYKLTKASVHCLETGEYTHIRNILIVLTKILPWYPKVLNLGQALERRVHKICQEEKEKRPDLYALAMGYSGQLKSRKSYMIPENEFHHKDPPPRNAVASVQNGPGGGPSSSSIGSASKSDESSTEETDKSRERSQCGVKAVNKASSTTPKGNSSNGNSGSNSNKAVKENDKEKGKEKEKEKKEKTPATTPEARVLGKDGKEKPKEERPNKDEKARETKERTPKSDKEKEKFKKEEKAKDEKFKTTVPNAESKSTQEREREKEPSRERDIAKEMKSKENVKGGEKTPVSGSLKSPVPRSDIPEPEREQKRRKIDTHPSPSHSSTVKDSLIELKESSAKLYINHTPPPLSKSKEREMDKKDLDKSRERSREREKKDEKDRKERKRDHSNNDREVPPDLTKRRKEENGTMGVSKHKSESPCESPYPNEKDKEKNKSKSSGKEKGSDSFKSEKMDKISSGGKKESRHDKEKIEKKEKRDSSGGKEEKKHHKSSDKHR

[32] = target: HEK293 cell lysate proteins and CHIKV nsP2 (Homo sapiens, UniProt Q86UP2)
[33] = target: HEK293 cell lysate proteins and CHIKV nsP2 (Homo sapiens, UniProt P12273)
[34] = target: HEK293 cell lysate proteins and CHIKV nsP2 (Homo sapiens, UniProt P35251)
[35] = target: HEK293 cell lysate proteins and CHIKV nsP2 (Homo sapiens, UniProt O43290)
HEK293 cell lysate proteins and CHIKV nsP2 (Homo sapiens, UniProt O43290), sequence (O43290 whole entry): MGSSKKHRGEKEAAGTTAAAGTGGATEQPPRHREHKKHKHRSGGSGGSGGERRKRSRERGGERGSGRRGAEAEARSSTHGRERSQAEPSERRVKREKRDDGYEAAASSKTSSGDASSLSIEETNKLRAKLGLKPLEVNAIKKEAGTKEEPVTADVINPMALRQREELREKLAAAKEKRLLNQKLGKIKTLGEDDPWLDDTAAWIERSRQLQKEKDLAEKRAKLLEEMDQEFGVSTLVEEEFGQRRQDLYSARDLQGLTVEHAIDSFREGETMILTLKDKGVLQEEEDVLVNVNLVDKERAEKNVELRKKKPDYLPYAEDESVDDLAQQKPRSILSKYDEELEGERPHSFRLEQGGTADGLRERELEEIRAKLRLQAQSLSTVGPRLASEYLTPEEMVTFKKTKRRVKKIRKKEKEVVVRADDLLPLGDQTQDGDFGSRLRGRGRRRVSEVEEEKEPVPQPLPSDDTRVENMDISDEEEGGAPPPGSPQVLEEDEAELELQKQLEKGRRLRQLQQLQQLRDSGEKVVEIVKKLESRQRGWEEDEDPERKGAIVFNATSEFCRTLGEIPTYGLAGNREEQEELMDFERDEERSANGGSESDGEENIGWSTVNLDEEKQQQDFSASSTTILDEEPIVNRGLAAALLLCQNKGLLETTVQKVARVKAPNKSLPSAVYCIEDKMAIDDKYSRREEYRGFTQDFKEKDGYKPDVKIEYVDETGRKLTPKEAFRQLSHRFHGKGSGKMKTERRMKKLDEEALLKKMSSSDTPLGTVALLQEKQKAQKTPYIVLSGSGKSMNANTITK

[36] = target: HEK293 cell lysate proteins and CHIKV nsP2 (Homo sapiens, UniProt P27816)

C#CCOc1ccccc1-c1cc(C(=O)NC/C=C/S(C)(=O)=O)on1 [VS, (E)-N-(3-(methylsulfonyl)allyl)−3-(2-(prop-2-yn-1-yloxy)phenyl)isoxazole-5-carboxamide] was tested. Which Log2 fold change [1] did it give?
Its Log2 fold change is 0.06.

And the Log2 fold change [2]?
Its Log2 fold change is -0.75.

And the Log2 fold change [3]?
The Log2 fold change was 1.97.

What about the Log2 fold change [4] of the same compound?
Its Log2 fold change is 3.37.

And the Log2 fold change [5]?
The Log2 fold change was 0.56.

What about the Log2 fold change [6] of the same compound?
The Log2 fold change was 1.36.

What about the Log2 fold change [7] of the same compound?
The Log2 fold change was -0.92.

And the Log2 fold change [8]?
The Log2 fold change was 3.09.

What about the Log2 fold change [9] of the same compound?
The Log2 fold change was 4.33.

What about the Log2 fold change [10] of the same compound?
Its Log2 fold change is -0.32.

What about the Log2 fold change [11] of the same compound?
Its Log2 fold change is 6.55.

And the Log2 fold change [12]?
The Log2 fold change was 0.64.

And the Log2 fold change [13]?
Its Log2 fold change is -3.45.

What about the Log2 fold change [14] of the same compound?
Its Log2 fold change is 0.12.

And the Log2 fold change [15]?
Its Log2 fold change is 1.63.

And the Log2 fold change [16]?
The Log2 fold change was 1.10.

What about the Log2 fold change [17] of the same compound?
The Log2 fold change was 1.36.

And the Log2 fold change [18]?
The Log2 fold change was -1.88.

What about the Log2 fold change [19] of the same compound?
Its Log2 fold change is -0.0263.

What about the Log2 fold change [20] of the same compound?
Its Log2 fold change is 2.53.

What about the Log2 fold change [21] of the same compound?
Its Log2 fold change is -1.93.

What about the Log2 fold change [22] of the same compound?
The Log2 fold change was 0.71.

And the Log2 fold change [23]?
The Log2 fold change was -1.22.

And the Log2 fold change [24]?
Its Log2 fold change is 0.96.

What about the Log2 fold change [25] of the same compound?
The Log2 fold change was -0.65.

What about the Log2 fold change [26] of the same compound?
Its Log2 fold change is 1.22.

And the Log2 fold change [27]?
The Log2 fold change was 1.78.

And the Log2 fold change [28]?
Its Log2 fold change is -1.35.

What about the Log2 fold change [29] of the same compound?
The Log2 fold change was 0.50.

What about the Log2 fold change [30] of the same compound?
Its Log2 fold change is 1.12.

And the Log2 fold change [31]?
The Log2 fold change was -0.12.

And the Log2 fold change [32]?
Its Log2 fold change is 0.34.

What about the Log2 fold change [33] of the same compound?
The Log2 fold change was 1.00.

And the Log2 fold change [34]?
The Log2 fold change was 0.30.

And the Log2 fold change [35]?
The Log2 fold change was 0.62.

And the Log2 fold change [36]?
The Log2 fold change was -0.37.
